Nine substances from patent publication US7674464B2, “Intracellular interleukin-1 receptor antagonists” (The University of Tennessee Research Foundation, priority 2004, dated 2010) can be followed below.

The test system of one data set is icIL-1ra type 1 mRNA. As to the kind of experiment: antisense oligonucleotide against icIL-1ra type 1 in HF-icIL-1ra fibroblasts, MMP-1 mRNA by RT-PCR. The data set is classed as cell-based, human. The settings on record: for MMP-1 mRNA levels: HF-icIL-1ra, vs PBS, empty liposome, scrambled oligonucleotide. Here is the method: Phosphorothioate-derivatized antisense oligodeoxynucleotide complimentary to −6 to +12 of the natural icIL-1ra was synthesized and purified by HPLC Integrated DNA Technologies Inc. (Coralville, Iowa). As a control, antisense oligonucleotide with a scrambled sequence was prepared by a similar method. Fibroblasts over-expressing icIL-1ra type 1 were transfected with […] of antisense icIL-1ra type 1 oligonucleotide (24 h prior to stimulation with 100 pg/ml of IL-1 beta) using LipofectAMINE™ protocol. PBS and LipofectAMINE™ alone served as additional controls. The cells were harvested 12-18 h after stimulation for RNA extraction. Total RNA was reverse transcribed and MMP-1 mRNA was estimated by semi-quantitative RT-PCR.
Fibroblasts over-expressing icIL-1ra type 1 were transfected with different concentrations of antisense icIL-1ra type 1 oligonucleotide (24 h prior to stimulation with IL-1β) using LipofectAMINE. PBS alone, LipofectAMINE alone and treatment with oligonucleotide having scrambled sequence served as controls. The cells were harvested 12-18 h after stimulation for RNA extraction. Total RNA was reverse transcribed and MMP-1 mRNA was estimated by real time RT-PCR. The values indicate mean±SD of three independent experiments performed on same batch of transfected geneticin selected fibroblasts (LIPO: LipofectAMINE alone, ANTIS-LIP: Antisense icIL-1ra oligonucleotide+LipofectAMINE, SCRAM-LIP: Scrambled oligonucleotide+LipofectAMINE).
Cells transfected with intracellular isoform of IL-1 receptor antagonist type 1 (HF-icIL-1ra) were treated with varying concentrations of antisense oligonucleotide directed against the intracellular isoform of IL-1 receptor antagonist type 1 mRNA. Oligonucleotide with a scrambled sequence was used as control. Both oligonucleotides were mixed with LipofectAMINE™ reagent to enhance cellular uptake.
Using the approach described in Example 5, a phosphorothioate-derivatized antisense oligodeoxynucleotide complimentary to −6 to +12 (5′-CGTCTGTAAAGGCATGGG-3′ SEQ ID NO: 41) of the natural icIL-1ra type 1 was synthesized and RHPLC purified. […]

The subject of a further data set is collagenase (MMP-1). As to the kind of experiment: IL-1β-induced collagenase (MMP-1) production by dermal fibroblasts, ELISA. The data set is classed as cell-based, human. The settings on record: added 2 hours before IL-1β, 48 hrs, IL1β + PBS 1351, PBS + PBS 556. As for the experimental part:
Confluent fibroblast monolayer cultures were treated for 2 hr with IL-1ra peptides and cultured for 48 h with hrIL-1β. Collagenase protein was measured in culture supernatants by ELISA.
Furthermore, the effect of the IL-1ra peptides on the stimulation of MMP-1 and TIMP expression was examined. Briefly, fibroblasts were seeded in wells of Flacon 3008 multiwell plates (5×10^4 cells/500 μl Maintenance Medium). After 72 h culture, the medium was removed from each well and replaced with Maintenance Medium (450 μl) containing 5% FCS and 25 μl of IL-1ra peptides or hrsIL-1ra peptide being tested. Two hrs later 25 μl IL-1β (100 pg/ml) was added to appropriate wells. Plates were incubated for 48 h, at which time medium was collected from each well. Levels of TIMP and collagenase produced by fibroblasts during culture were measured by specific ELISA techniques as previously described (Postlethwaite et al., 1988).

Data set [1] has as its system collagen-induced arthritis (CIA). As to the kind of experiment: collagen-induced arthritis in DBA/1 lac mice, peptides by s.c. injection. The format is in vivo. The conditions noted are these: s.c. 227 μg/kg once daily, 5 consecutive days each week, day 22 to day 50, vs control peptide IL-1ra 37-30. Here is the method:
Groups of 12 mice were treated with subcutaneous injections of NLS-IL-1ra 1-35 (SEQ ID NO: 18), NLS-IL-1ra 30-37 ([…]) or IL-1ra 37-30 (SEQ ID NO: 43) as a control beginning day 22 to day 50. Mice were injected once each consecutive 5 days out of each week. Mean arthritic score is shoon. P values are determined by Students' t test.
The peptides disclosed in table 11 were delivered to the mice using 2 approaches. The first approach consisted of daily injections for 5 days each week via the subcutaneous (s.c.) route after the first appearance of clinical arthritis. The second approach consisted of continuous delivery via a subcutaneously implanted osmotic pump. For these studies, the following protocols were used: Since a smaller fragment of the 37 amino acid IL-1ra peptide containing amino acids LVAGY (SEQ ID NO: 42) inhibit IL-1β, TNFα, and bFGF induction of MMP-1 in human fibroblasts in vitro, effects of several peptides containing the LVAGY (SEQ ID NO: 42) sequence (Table 11) on CIA in mice was examined.
For s.c. injected route of delivery, 36 six-week old female DBA-1 lac mice were immunized with a stable emulsion of complete Freund's adjuvant (CFA) and native bovine II prepared as previously described (Seyer et al., 1989). Each mouse received 100 μg CII in 50 μl of the CFA CII emulsion intradermally at the base of the tail. Beginning day 14 post immunization, mice were examined for the presence of paw swelling as an indication of the onset of arthritis. On day 21 post immunization, the first paw swelling occurred in 2 mice and on day 22 post immunization, mice were divided into groups of 12. NLS-IL-1ra 1-35 (SEQ ID NO: 18), NSL-IL-1ra 30-37 (SEQ ID NO: 43), and reverse control peptide IL-1ra 37-30 (SEQ ID NO: 44) were separately administered s.c. to groups of 12 mice beginning on day 22 post immunization to day 50 post immunization. […] Results described herein are expressed as the mean arthritic score per mouse arrived at by adding up the total joint scores for mice in each group divided by the number of mice in the group.

The test system is the same in data set [2]. As to the kind of experiment: collagen-induced arthritis in DBA/1 mice, peptide by osmotic pump. The format is in vivo. Here is the method: The mice (total=20) were immunized by subcutaneous injection at the base of the tail with 100 μg/ml of bovine CII in CFA at day 0. At day 20, an Alzet Osmotic pump-2004 containing 1.67 mg NLS-IL-1ra (1-35) peptide (SEQ ID NO: 18) in 200 microliters D5W solvent (n=10) or the solvent alone (n=10) was surgically inserted subcutaneously in each of 10 mice. Beginning at 21 days after immunization, mice were monitored for the severity (FIG. 40A) and incidence (FIG. 40B) of arthritis.
For osmotic pump delivery of peptide, at day 20 following immunization, an Alzet Osmotic pump-2004 (Durect Corporation, Cupertino, Calif.), containing 1.67 mg NLS-ILra 1-35 peptide in 200 microliters D5W solvent was surgically inserted subcutaneously in each of 10 mice. According to the manufacturer's specifications, the pumps are designed to inject constantly for 4 weeks at the speed of […] 6 μl (50 μg peptide)/day. Each of the 10 control mice received a pump containing same amount D5W only. Animals were periodically monitored for incidence and severity of arthritis and scored as described above.

Data set [3] concerns collagenase. The data set can be described thus: TNF alpha-stimulated fibroblast collagenase production. The format is cell-based. The conditions noted are these: TNF alpha + PBS 9391, PBS 645. Here is the method: (§1) To potentially enhance translocation of the peptide, a nuclear localization sequence (NLS), namely, KKKMEKR from human IL-1β was added to the peptide with SEQ ID NO: 13 and the effect of the peptide with and without the NLS on collagenase production was assessed. In this case the cultures were stimulated with TNF-α or basic fibroblast growth factor (bFGF).

Data set [4] deals with collagenase. The data set can be described thus: bFGF-stimulated fibroblast collagenase production. The settings on record: bFGF + PBS 5058, PBS 645. The format is cell-based. As for the experimental part: as §1
[5] abbreviates: IL1β (100 pg/mL) + peptide 100 ng/mL.
[6] abbreviates: IL1β (100 pg/mL) + peptide 1 μg/mL.
Where [7] appears, read: IL1β (100 pg/mL) + peptide 10 μg/mL.

Entries after “also recorded” stand apart in the source; their conditions may differ.

For the substance “5′-CGTCTGTAAAGGCATGGG-3′ (DNA, all phosphorothioate, methylation of C not given here)”, the “reduced expression of MMP-1 mRNA and protein in icIL-1ra transfected fibroblasts” value in the data set with icIL-1ra type 1 mRNA (FIG. 36) is given as “reversed”. The “MMP-1 mRNA levels” value with icIL-1ra type 1 mRNA (200 mM antisense, 1.0 ng/ml hrIL-1β) is listed as “significantly higher”; in the data set on icIL-1ra type 1 mRNA (300 mM antisense with LipofectAMINE, IL-1β stimulated, p=0.001), “significantly higher”.

With “LVAGYLQG (IL-1ra peptides) [SEQ ID NO: 24]”, the values for the Collagenase in the data set with collagenase (MMP-1) (setting [5]), in the data set on collagenase (MMP-1) (setting [6]) and in the data set with collagenase (MMP-1) (setting [7]) were 857 ng/mL, 841 ng/mL and 749 ng/mL, respectively.

Turning to “KKKMEKRLVAGYLQG (IL-1ra peptide) [NLS IL-1ra 30-37]”, the “suppression of CIA, mean arthritic score” value in data set [1] (listed as NSL IL-1ra 30-37) is on record as “suppressed CIA”; in data set [1] (listed as NSL-sIL-1ra 30-37), “effective in reducing arthritis”.

With “RPSGRKSSKMQAFRI (IL-1ra peptides) [SEQ ID NO: 19]”, the Collagenase in the data set on collagenase (MMP-1) (setting [5]) was found to be 1746 ng/mL; with collagenase (MMP-1) (setting [6]), 1152 ng/mL; in the data set with collagenase (MMP-1) (setting [7]), 1267 ng/mL.

For “FYLRNNQLVAGYLQG (IL-1ra peptides) [SEQ ID NO: 21]”, the Collagenase worked out at 2142 ng/mL with collagenase (MMP-1) (setting [5]), 2361 ng/mL in the data set with collagenase (MMP-1) (setting [6]) and 2581 ng/mL in the data set on collagenase (MMP-1) (setting [7]).

Consider “MQAFRIWDVNQKTFYLR (IL-1ra peptides) [SEQ ID NO: 20]”, for which the figures for the Collagenase in the data set with collagenase (MMP-1) (setting [5]), in the data set with collagenase (MMP-1) (setting [6]) and in the data set on collagenase (MMP-1) (setting [7]) were 2644 ng/mL, 2139 ng/mL and 2036 ng/mL, respectively.

For the substance “NNQLVAGY (IL-1ra peptides) [SEQ ID NO: 23]”, the figures for the Collagenase with collagenase (MMP-1) (setting [5]), in the data set on collagenase (MMP-1) (setting [6]) and in the data set with collagenase (MMP-1) (setting [7]) were 541 ng/mL, 619 ng/mL and 1078 ng/mL, respectively.

Regarding “KKKMEKRRPSGRKSSKMQAFRIWDVNQKTFYLRNNQLVAGYL (IL-1ra peptides) [NLS-IL-1ra]”, the “suppression of CIA, mean arthritic score” value in data set [1] is “suppressed CIA”. The “incidence and severity of arthritis” value in data set [2] (osmotic pump from day 20, 50 μg peptide/day for 4 weeks, vs D5W solvent, listed as NLS-IL-1ra 1-35) was “reduced; also recorded: reduces incidence and severity of arthritis”. Besides, the “delay of the onset of arthritis” value in data set [2] (osmotic pump, incidence and severity reached control levels after this time) was 20 days. In addition, the Collagenase in the data set with collagenase [3] (TNF alpha (5 ng/ml) + peptide 100 pg/ml) was 243 ng/mL; in the data set with collagenase [3] (TNF alpha (5 ng/ml) + peptide 1 ng/ml), 238 ng/mL; with collagenase [3] (TNF alpha (5 ng/ml) + peptide 10 ng/ml), 1199 ng/mL; in the data set with collagenase [3] (TNF alpha (5 ng/ml) + peptide 100 ng/ml), 1254 ng/mL; in the data set on collagenase [3] (TNF alpha (5 ng/ml) + peptide 1 μg/ml), 849 ng/mL; with collagenase [4] (bFGF (5 ng/ml) + peptide 100 pg/ml), 2367 ng/mL. The Collagenase in the data set on collagenase [4] (bFGF (5 ng/ml) + peptide 1 ng/ml) was found to be 2541 ng/mL; in the data set with collagenase [4] (bFGF (5 ng/ml) + peptide 10 ng/ml) it was 3167 ng/mL; with collagenase [4] (bFGF (5 ng/ml) + peptide 100 ng/ml) it was 3199 ng/mL; with collagenase [4] (bFGF (5 ng/ml) + peptide 1 μg/ml), 5649 ng/mL.

For “FYLRNNQ (IL-1ra peptides) [SEQ ID NO: 22]”, the figures for the Collagenase with collagenase (MMP-1) (setting [5]), in the data set with collagenase (MMP-1) (setting [6]) and in the data set on collagenase (MMP-1) (setting [7]) were 1514 ng/mL, 1827 ng/mL and 1881 ng/mL, respectively.
